From ChEMBL document CHEMBL5506010, “Butyrylcholinesterase-Activated Near-Infrared Fluorogenic Probe for In Vivo Theranostics of Alzheimer's Disease” (J Med Chem, 2024)
Activity calls are given as the source filed them. The rule behind the calls is not given here.

Tests used:
[1] = Stability of compound in PBS at pH 7.4 measured after 72 hrs by HPLC analysis; assay type: physicochemical; conditions: buffer, pH 7.4, 72 h
[2] = biological target: Cholinesterase (Mus musculus) (UniProt Q03311); assay: Binding affinity to BChE in mouse HT-22 cells at 10 uM incubated for 1 hrs by fluorescence based confocal laser scanning microscopic analysis; assay type: cell-based
Sequence of Cholinesterase (Mus musculus) (Q03311 whole entry): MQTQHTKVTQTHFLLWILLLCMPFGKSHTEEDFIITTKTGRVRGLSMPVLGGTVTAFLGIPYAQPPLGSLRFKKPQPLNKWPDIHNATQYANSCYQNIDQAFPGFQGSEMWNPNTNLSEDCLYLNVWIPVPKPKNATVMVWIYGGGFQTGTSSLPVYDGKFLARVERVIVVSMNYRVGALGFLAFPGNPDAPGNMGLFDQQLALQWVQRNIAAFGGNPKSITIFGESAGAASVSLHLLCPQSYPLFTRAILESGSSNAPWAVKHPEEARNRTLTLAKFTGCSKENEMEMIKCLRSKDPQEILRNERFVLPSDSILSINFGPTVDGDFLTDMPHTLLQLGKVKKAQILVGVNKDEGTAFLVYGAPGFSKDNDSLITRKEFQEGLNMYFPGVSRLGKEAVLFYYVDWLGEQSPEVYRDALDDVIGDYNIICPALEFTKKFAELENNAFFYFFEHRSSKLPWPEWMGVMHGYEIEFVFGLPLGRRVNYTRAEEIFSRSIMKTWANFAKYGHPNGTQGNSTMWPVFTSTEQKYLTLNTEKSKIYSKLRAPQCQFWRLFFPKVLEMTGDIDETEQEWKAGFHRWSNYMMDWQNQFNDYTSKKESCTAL

[3] = Drug uptake in HEK293T cells transfected with BChE siRNA assessed as increase in fluorescence intensity by fluorescence based confocal laser scanning microscopic analysis; assay type: ADME, cell-based; conditions: human, hek-293t
PC-12 [4] = assay: Binding affinity to BChE in rat PC-12 cells assessed as increase in fluorescence intensity preincubated with tacrine for 24 hrs followed by compound addition and measured after 1 hrs by fluorescence based confocal laser scanning microscopic analysis; assay type: cell-based
PC-12 [5] = assay: Binding affinity to BChE in rat PC-12 cells assessed as increase in fluorescence intensity preincubated with S11-1014 for 24 hrs followed by compound addition and measured after 1 hrs by fluorescence based confocal laser scanning microscopic analysis; assay type: cell-based
SH-SY5Y [6] = assay: Neuroprotective activity against amyloid-beta (1 to 42)-induced cell death in human SH-SY5Y cells assessed as increase in cell survival preincubated with compound for 2 hrs followed by amyloid beta (1 to 42) addition and measured after 24 hrs by MTT assay; assay type: functional, cell-based; conditions: dose 10-50 µM, time 26.0 hrs
SH-SY5Y [7] = assay: Neuroprotective activity against amyloid-beta (1 to 42)-induced human SH-SY5Y cells assessed as decrease in amyloid beta (1 to 42) level in culture medium at 10 to 20 uM incubated for 24 hrs by ELISA; assay type: functional, cell-based; conditions: dose 10-20 µM
SH-SY5Y [8] = assay: Neuroprotective activity against amyloid-beta (1 to 42)-induced human SH-SY5Y cells assessed as decrease in amyloid beta (1 to 42) level in cell lysate at 10 to 20 uM incubated for 24 hrs by ELISA; assay type: functional, cell-based; conditions: dose 10-20 µM
[9] = biological target: Cholinesterase (Mus musculus) (UniProt Q03311); assay: Binding affinity to BChE in mouse HT-22 cells assessed as increase in fluorescence at 10 uM incubated for 1 hrs in presence of DCF by laser confocal imaging analysis; assay type: cell-based
[10] = Permeability of compound incubated for 18 hrs by PAMPA-BBB based UV plate spectroscopic reader analysis; assay type: ADME; conditions: read-out: permeability
[11] = Stability of compound in male ICR mouse brain at 100 uM, iv measured after 24 hrs by fluorescence microplate reader; assay type: ADME, organism-based
[12] = Stability of compound at pH 12 measured within 3 mins by microplate reader analysis; assay type: physicochemical; conditions: buffer, pH 12, 0.05 h
[13] = Drug accumulation in brain of APP/PS1 transgenic AD-mouse model at 100 uM, iv measured after 24 hrs […] by fluorescence imaging analysis; assay type: ADME, organism-based; conditions: in vivo
[14] = Drug uptake in brain of 7-month old APP/[…] transgenic AD-mouse model assessed as increase in fluorescence at 100 uM, iv measured after 1 hrs by fluorescence imaging analysis; assay type: ADME, organism-based; conditions: in vivo
[15] = Drug uptake in wildtype mouse brain assessed as increase in fluorescence at 100 uM, iv by fluorescence scanning analysis; assay type: ADME, organism-based; conditions: in vivo
[16] = Drug uptake in brain of 6 weeks old AD-mouse model assessed as increase in fluorescence at 100 uM, iv by fluorescence scanning analysis; assay type: ADME, organism-based; conditions: in vivo
[17] = Drug uptake in wildtype mouse brain assessed as increase in fluorescence at 100 uM, iv preadministered with tacrine for 4 hrs followed by compound administration by fluorescence scanning analysis; assay type: ADME, organism-based; conditions: in vivo
Mus musculus [18] = assay: Antialzheimer activity in APP/PS1 transgenic AD mouse model assessed as improvement in memory administered intravenously once every 2 days for 10 times followed by morris water maze training from day 21 to 25 and measured on day 26 by Morris water maze test; assay type: functional, organism-based; conditions: route iv, time 26.0 day
Mus musculus [19] = assay: Antialzheimer activity in APP/PS1 transgenic AD mouse model assessed as increase in alteration performance administered intravenously once every 2 days for 10 times and measured on day 26 by Y maze test; assay type: functional, organism-based; conditions: route iv, time 26.0 day
Mus musculus [20] = assay: Antialzheimer activity in APP/PS1 transgenic AD mouse model assessed as improvement in memory administered intravenously once every 2 days for 10 times and measured on day 26 by Y maze test; assay type: functional, organism-based; conditions: route iv, time 26.0 day
[21] = Toxicity in APP/PS1 transgenic AD mouse model assessed as effect on body weight administered intravenously once every 2 days for 10 times and measured on day 30; conditions: in vivo, iv, 720 h, time 30 day
Cholinesterase [22] = biological target: T1, Cholinesterase (Homo sapiens, UniProt P06276); assay: Binding affinity to BChE (unknown origin) in PBS assessed as red-shift in maximum absorption to 680 nm by UV/vis absorption analysis
T1 sequence (P06276 whole entry): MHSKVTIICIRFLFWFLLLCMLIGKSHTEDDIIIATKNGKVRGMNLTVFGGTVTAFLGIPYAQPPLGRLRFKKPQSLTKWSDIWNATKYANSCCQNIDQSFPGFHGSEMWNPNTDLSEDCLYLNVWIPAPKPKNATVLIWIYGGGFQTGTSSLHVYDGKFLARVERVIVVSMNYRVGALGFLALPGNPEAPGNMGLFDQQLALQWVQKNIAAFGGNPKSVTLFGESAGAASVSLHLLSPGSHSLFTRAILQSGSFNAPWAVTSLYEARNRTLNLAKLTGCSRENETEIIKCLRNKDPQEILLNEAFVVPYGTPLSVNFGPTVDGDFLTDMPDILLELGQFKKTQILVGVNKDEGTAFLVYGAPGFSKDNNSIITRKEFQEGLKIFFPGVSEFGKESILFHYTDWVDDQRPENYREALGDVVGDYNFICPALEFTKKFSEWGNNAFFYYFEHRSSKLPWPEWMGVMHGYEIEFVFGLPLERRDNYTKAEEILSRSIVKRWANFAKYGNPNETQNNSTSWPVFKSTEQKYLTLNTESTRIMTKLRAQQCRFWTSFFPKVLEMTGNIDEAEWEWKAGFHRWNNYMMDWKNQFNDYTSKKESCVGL

Cholinesterase [23] = biological target: T1, Cholinesterase; assay: Binding affinity to BChE (unknown origin) in PBS assessed as maximum emission wavelength at 710 nm by fluorescence spectra analysis
Homo sapiens = species on record: Homo sapiens; assay: Binding affinity to carboxylesterase (unknown origin) by fluorescence analysis
Cholinesterase [24] = biological target: T1, Cholinesterase; assay: Binding affinity to BChE (unknown origin) assessed as enzyme mediated compound hydrolysis measured after 5 min by HPLC analysis relative to control; design: scale not given: the % may be the effect or the level left
Cholinesterase [25] = biological target: T1, Cholinesterase; assay: Binding affinity to BChE (unknown origin) in PBS assessed as maximum initial reaction rate by fluorometric method

Compound: CCN(CC)Cc1ccccc1CNC(=O)c1cccc(NC(=O)c2cccc(C(=O)NCCn3cc(CCC[N+]4=C(/C=C/C5=C6Oc7cc(OC(=O)C8CC8)ccc7C=C6CCC5)C(C)(C)c5ccccc54)nn3)c2)c1.[I-]
- Stability [1]: Stable
- Activity [2]: Active
- Drug uptake [3]: Not Active
- Activity (PC-12 [4]): inactive
- Activity (PC-12 [5]): inactive
- Activity (SH-SY5Y [6]): Dose-Dependent Effect
- Activity (SH-SY5Y [7]): Active
- Activity (SH-SY5Y [8]): Active
- Activity [9]: inactive
- Papp at 18 h [10]: 15.5 ×10⁻⁶ cm/s
- Stability [11]: Unstable
- Stability [12]: Unstable
- Drug uptake [13]: Not Active
- Drug uptake [14]: Active
- Drug uptake [15]: Active
- Drug uptake [16]: Active
- Drug uptake [17]: Not Active
- Activity (Mus musculus [18]): Active
- Activity (Mus musculus [19]): Active
- Activity (Mus musculus [20]): inactive
- Activity [21]: Non-Toxic
- Activity (Cholinesterase [22]): Active
- Activity (Cholinesterase [23]): Active
- Activity (Homo sapiens): inactive
- Activity (Cholinesterase [24]): > 90%
- Activity (Cholinesterase [25]): 3.02 µM/min
